Test results published in paper PMC9639148 (Journal for Immunotherapy of Cancer, 2022).

How the values were obtained:
IL-15 = assay: ELISA, IL-15 in KYSE70 supernatants; assay type: cell-based, human; conditions: 10 µM, 48 hours, vs vehicle supernatants
APOBEC3B [1] = target: T1, APOBEC3B (Homo sapiens, UniProt Q9UH17); assay: Microscale thermophoresis; assay type: binding
APOBEC3G [2] = target: T2, APOBEC3G (Homo sapiens, UniProt Q9HC16); assay: MST, APOBEC3G protein; assay type: binding
CD8^+ T cells [3] = assay: Activated PBMCs cocultured with KYSE70 cells; assay type: cell-based, human; conditions: 10 µM, coculture with KYSE70 cells
HET-1A cells = assay: Cell viability assay; assay type: cell-based, human; conditions: MTT, 24, 48 and 72 hours
4-NQO-induced ESCC = assay: 4-NQO-induced spontaneous ESCC mouse model; assay type: in vivo
KYSE150-vector cells = assay: MST within KYSE150-vector cells
CD8+ T cells = assay: T cell migration assay; assay type: cell-based, human; conditions: supernatant of KYSE70 pretreated with 10 μM for 48 hours
KYSE150-APOBEC3B cells = KYSE150-APOBEC3B cells (Homo sapiens, UniProt Q9UH17); assay: MST within KYSE150-APOBEC3B cells; assay type: binding
APOBEC3B [4] = target: T1, APOBEC3B; assay: Fluorescence-based ssDNA cytosine deamination assay; assay type: biochemical; conditions: IC50, dose-dependent assay, figure 2D, E
APOBEC3B [5] = assay: qRT-PCR of APOBEC3B mRNA in KYSE70 cells; assay type: cell-based, human; conditions: 48 hours
[6] = Thyroid function in vivo, naive C57BL/6J mice; parameters: species or system mouse; conditions: 0.5, 2 and 8 mg/kg i.p. every 2 days for 2 weeks, vs NS group
[7] = 0.5, 2 and 8 mg/kg i.p. every 2 days for 2 weeks
CD8^+ T cells [8] = assay: Activated human PBMCs directly treated; assay type: cell-based; conditions: 10 µM for 3 days
APOBEC3 = assay: Mouse whole exome sequencing of esophagus tissues; assay type: in vivo
[9] = test system: AOM/DSS-induced colon cancer; assay: AOM/DSS-induced spontaneous colon cancer mouse model; assay type: in vivo
APOBEC3A [10] = target: T3, APOBEC3A (Homo sapiens, UniProt P31941); assay: MST, APOBEC3A protein; assay type: binding
PD-L1 in RKO cell = assay: PD-L1 expression by flow cytometry, RKO; assay type: cell-based, human; conditions: 48 hours
CD8^+ T cells [11] = assay: Coculture assay: PBMCs cultured in supernatants of KYSE70 cells; assay type: cell-based, human; conditions: supernatants of KYSE70 cells pretreated with 10 µM for 48 hours, PBMCs 3 days
[12] = In vivo toxicity analysis, 4-NQO-induced ESCC mice; parameters: species or system mouse
[13] = test system: APOBEC3B overexpressed E. coli; assay: Bacterial resequencing; assay type: cell-based, Escherichia coli; conditions: 2 µM for 3 days
APOBEC3B [14] = target: T1, APOBEC3B; assay type: biochemical
KYSE70 cells [15] = assay: Cell viability assay; assay type: cell-based, human; conditions: 0.01-100 μM, MTT
[16] = In vivo toxicity analysis, AOM/DSS-induced colon cancer mice; parameters: species or system mouse; conditions: 0.5 mg/kg each i.p.
KYSE70 cells [17] = assay: Transcriptome sequencing of KYSE70 cells; assay type: cell-based, human; conditions: 10 µM for 48 hours
APOBEC3A [18] = target: T3, APOBEC3A; assay: biochemical; conditions: read-out: inhibition rate of APOBEC3A deaminase activity
IFN-γ^+CD8^+ T cells [19] = assay: Ex vivo intracellular cytokine staining, AOM/DSS-induced colon cancer mice; assay type: in vivo, mouse; conditions: 0.5 mg/kg each i.p.
PD-L1 in KYSE70 cell = assay: PD-L1 expression by flow cytometry, KYSE70; assay type: cell-based, human; conditions: 10 µM and 100 µM, 48 hours
IL-7 = assay: ELISA, IL-7 in KYSE70 supernatants; assay type: cell-based, human; conditions: 10 µM, 48 hours, vs vehicle supernatants; IL-7 expression level was too low
APOBEC3G [20] = target: T2, APOBEC3G; assay: biochemical; conditions: read-out: inhibition rate of APOBEC3G deaminase activity
IL-7 and IL-15 = assay: qRT-PCR of IL-7 and IL-15 in KYSE70 cells; assay type: cell-based, human; conditions: 10 µM
IFN-γ^+CD8^+ T cells [21] = assay: Ex vivo intracellular cytokine staining, 4-NQO-induced ESCC mice; assay type: in vivo, mouse; conditions: 0.5 mg/kg each i.p.
[22] = both low (0.5 mg/kg) and high dose (2 mg/kg) i.p.

T1 sequence (Q9UH17 whole entry): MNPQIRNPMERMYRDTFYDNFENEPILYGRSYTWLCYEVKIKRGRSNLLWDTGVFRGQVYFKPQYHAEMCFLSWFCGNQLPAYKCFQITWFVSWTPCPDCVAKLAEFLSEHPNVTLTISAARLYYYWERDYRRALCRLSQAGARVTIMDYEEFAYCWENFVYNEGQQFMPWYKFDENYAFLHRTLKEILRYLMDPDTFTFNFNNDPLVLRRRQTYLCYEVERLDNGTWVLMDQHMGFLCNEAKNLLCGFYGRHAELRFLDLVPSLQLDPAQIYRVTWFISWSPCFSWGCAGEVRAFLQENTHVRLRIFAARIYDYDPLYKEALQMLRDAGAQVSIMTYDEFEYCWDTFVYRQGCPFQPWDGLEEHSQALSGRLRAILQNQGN
T2 sequence (Q9HC16 whole entry): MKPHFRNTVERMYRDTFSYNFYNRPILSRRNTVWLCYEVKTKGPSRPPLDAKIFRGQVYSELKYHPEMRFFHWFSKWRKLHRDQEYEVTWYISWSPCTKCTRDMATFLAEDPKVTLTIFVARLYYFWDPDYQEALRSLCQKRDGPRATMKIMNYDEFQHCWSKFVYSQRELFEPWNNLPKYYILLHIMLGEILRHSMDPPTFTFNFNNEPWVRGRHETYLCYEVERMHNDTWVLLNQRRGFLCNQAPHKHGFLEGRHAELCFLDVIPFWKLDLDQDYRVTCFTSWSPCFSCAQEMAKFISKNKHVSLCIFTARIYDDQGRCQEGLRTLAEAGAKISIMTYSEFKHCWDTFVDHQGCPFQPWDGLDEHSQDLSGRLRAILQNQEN
T3 sequence (P31941 whole entry): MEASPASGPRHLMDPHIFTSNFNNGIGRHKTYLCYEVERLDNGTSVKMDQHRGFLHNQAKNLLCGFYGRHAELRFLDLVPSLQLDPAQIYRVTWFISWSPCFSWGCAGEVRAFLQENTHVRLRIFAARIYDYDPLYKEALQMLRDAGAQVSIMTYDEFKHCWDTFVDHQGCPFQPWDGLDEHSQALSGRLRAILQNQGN
Sequence of KYSE150-APOBEC3B cells (Q9UH17 whole entry): as the sequence (Q9UH17 whole entry) above

SMILES: N[C@@H](Cc1cc(I)c(O)c(I)c1)C(=O)O [SMC247, 3,5-diiodotyrosine]
- secretion level of IL-15 (IL-15): significantly greater
- Kd (APOBEC3B [1]): 65 nM
- binding to APOBEC3G (APOBEC3G [2]): weakly bound
- proliferation of CD8^+ T cells and proportion of IFN-γ^+CD8^+ T cells (CD8^+ T cells [3]): promoted
- viability of HET-1A cells (HET-1A cells): did not affect the viability
- number and length of ESCC tumor tissue (4-NQO-induced ESCC; 0.5 mg/kg or 2 mg/kg i.p. every 2 days for 2 weeks, vs NS): significantly reduced
- body weight (4-NQO-induced ESCC; [22]): slow down the loss trend of body weight
- overall survival of mice (4-NQO-induced ESCC; [22]): significantly prolong
- H&E of esophagus tissues (4-NQO-induced ESCC; combination study): effectively alleviated
- number and length of ESCC tumor tissues (4-NQO-induced ESCC; combination study, 0.5 mg/kg each i.p. every 2 days for 2 weeks): significantly reduced
- affinity to KYSE150-vector cells (KYSE150-vector cells): no affinity
- migration of CD8^+ T cells (CD8+ T cells): could not promote the migration
- Kd (KYSE150-APOBEC3B cells): 6140 ± 7930 nM
- IC50 (APOBEC3B [4]): 1690 nM
- expression of APOBEC3B (APOBEC3B [5]): down-regulated
- thyroid-stimulating hormone, free triiodothyronine (fT3) and free thyroxine (fT4) [6]: no significant difference
- blood routine indexes (WBC, HGB, PLT, RBC) and blood biochemical (AST and ALT) indexes [7]: within the normal range
- function of CD8^+ T cells in the absence of tumor cells (CD8^+ T cells [8]): did not directly affect the function of CD8^+ T cells
- C>A mutation type (APOBEC3; 0.5 mg/kg i.p.): reduction
- contribution of APOBEC activity related signatures (SBS2 and SBS13) (APOBEC3; 0.5 mg/kg i.p.): weakened
- mutation counts of C>T and C>G (APOBEC3; 0.5 mg/kg i.p.): reduced
- number of mutations at exome levels (APOBEC3; 0.5 mg/kg i.p. every 2 days for 2 weeks, vs NS): significantly reduced
- H&E of colon tissue ([9]; 0.5 mg/kg each i.p.): the colonic mucosa was intact and the glandular cells were basically arranged in order
- disease activity index (DAI) ([9]; 0.5 mg/kg each i.p.): decreased
- length of colon ([9]; 0.5 mg/kg each i.p.): without changing the length of colon basically
- number and size of tumors in colonic epithelial tissues ([9]; 0.5 mg/kg each i.p.): significantly reduced
- body weight loss ([9]; 0.5 mg/kg each i.p. every 2 days for 9 weeks): significantly slow down the trend of body weight loss
- enteritis phenomenon ([9]; mouse, in vivo): significantly relieved
- binding to APOBEC3A (APOBEC3A [10]): weakly bound
- expression of PD-L1 (PD-L1 in RKO cell): up-regulate
- promotion effect on CD8^+ T cells (CD8^+ T cells [11]): still existed
- AST and ALT in serum ([12]; 0.5 mg/kg vs NS group): no significant differences
- H&E staining of main viscera ([12]; heart, liver, spleen, lung, kidney): no obvious toxic effects
- C>T transversion driven by APOBEC3B in E. coli genome [13]: significant reduced
- deaminase activity of APOBEC3B (APOBEC3B [14]): significantly inhibited
- product amount (APOBEC3B [14]): reduced in a dose-dependent manner
- proliferation of KYSE70 cells (KYSE70 cells [15]): could not inhibit the proliferation
- toxic effects (H&E of organs, AST and ALT) [16]: no obvious toxic effects
- IL-7 and IL-15 expression (transcriptome sequencing) (KYSE70 cells [17]): significantly upregulated
- inhibition at 100 µM (APOBEC3A [18]): < 50%
- proportions of IFN-γ^+CD8^+ T cells in both spleen and lymph node (IFN-γ^+CD8^+ T cells [19]): increased
- expression of PD-L1 (PD-L1 in KYSE70 cell): up-regulate
- secretion level of IL-7 (IL-7): significantly greater
- inhibition at 100 µM (APOBEC3G [20]): < 50%
- IL-7 and IL-15 expression levels (qRT-PCR) (IL-7 and IL-15): consistent with the above sequencing results
- proportions of IFN-γ^+CD8^+ T cells in both spleen and lymph node (IFN-γ^+CD8^+ T cells [21]): increased
